In brackets after ≈: the same amount, converted by molar mass.
Columns and labels:
Assay type in all cases: cell-based
E. Coli JT39 = assay: MIC by standard microtitre technique (dilution in tryptone soy broth); conditions: Escherichia coli, substance alone
Experimental: (§1) By a standard microtitre technique the MIC values for ampicillin alone, ampicillin and 9-N-(2-N-morpholinoethyl)aminodeoxyclavulanic acid and 9-N-(2-N-morpholinoethyl)aminodeoxyclavulanic acid alone were determined.
(§2) MIC μg/ml (dilution in tryptone soy broth)
(§3) By a standard microtitre technique the MIC values for ampicillin alone, ampicillin and 9-N-[3'-N-(2"-pyrrolidinoyl)propyl]aminodeoxyclavulanic acid and 9-N[3'-N-(2"-pyrrolidinoyl)propyl]aminodeoxyclavulanic acid alone were determined.

Kleb Aergenes E70 = assay: as above; conditions: Klebsiella aerogenes, substance alone
Experimental: as §1, §2, §3

Staph. Aureus Russell [1] = assay: as above; conditions: Staphylococcus aureus, substance alone
Experimental: as §1, §2, §3

Staph. aureus Oxford = assay: Antibacterial activity, MIC (dilution in blood agar-heavy inoculum); conditions: Staphylococcus aureus
From the text: (§4) Antibacterial activity of 9-N-[3'-N-(2"-pyrrolidinonyl)propyl]aminodeoxyclavulanic acid
(§5) Dilution in blood agar-heavy inoculum

Staph. Aureus Russell [2] = assay: as above; conditions: Staphylococcus aureus
From the text: as §4, §5

Strep. pyogenes = assay: as above; conditions: Streptococcus pyogenes
From the text: as §4, §5

Strep. pneumoniae = assay: as above; conditions: Streptococcus pneumoniae
From the text: as §4, §5

SMILES | MIC (E. Coli JT39) | MIC (Kleb Aergenes E70) | MIC (Staph. Aureus Russell [1]) | MIC (Staph. aureus Oxford) | MIC (Staph. Aureus Russell [2]) | MIC (Strep. pyogenes) | MIC (Strep. pneumoniae)
O=C(O)[C@H]1/C(=C/CNCCN2CCOCC2)O[C@@H]2CC(=O)N21 [Example 1, 9-N-(2'-N-Morpholinoethyl)aminodeoxyclavulanic acid] | 62 µg/mL (≈ 199 µM) | 500 µg/mL (≈ 1610 µM) | 16 µg/mL (≈ 51.4 µM) | – | – | – | –
CC1(C)S[C@@H]2[C@H](NC(=O)[C@H](N)c3ccccc3)C(=O)N2[C@H]1C(=O)O [Ampicillin, reference compound] | > 2000 µg/mL | 1000 µg/mL (≈ 2860 µM) | 1000 µg/mL (≈ 2860 µM) | – | – | – | –
O=C(O)[C@H]1/C(=C/CNCCCN2CCCC2=O)O[C@@H]2CC(=O)N21 [Example 2, 9-N[3'-N-(2"-Pyrrolidinonyl)propyl]aminodeoxyclavulanic acid] | 62 µg/mL (≈ 192 µM) | 500 µg/mL (≈ 1550 µM) | 16 µg/mL (≈ 49.5 µM) | 5 µg/mL (≈ 15.5 µM) | 5 µg/mL (≈ 15.5 µM) | 1.25 µg/mL (≈ 3.87 µM) | 5 µg/mL (≈ 15.5 µM)
